Data published in patent US6391826B1, “Optically active uracil compounds” (Sumitomo Chemical Company, Limited, priority 1998, dated 2002).

Legend:
Assay type in all cases: in vivo
Design in all cases: key: “0” means that there was no or little difference in the degree of germination or growth between the treated and the untreated tested plants at the time of examination; “5” means that the test plants died complete or their germination or growth was completely inhibited
[1] = tested on: barnyardgrass (Echinochloa crus-gali); experiment: Test Example 4: soil surface treatment on upland fields; conditions: examined after 25 days, index 0-5
Description: (§1) Soil Surface Treatment on upland fields Plastic pots which have an area of (26.5×19)cm^2 and a depth of 7 cm were filled with upland soil, seeded with hemp sesbania (Sesbania exaltata), barnyardgrass (Echinochloa crus-gali) and johnsongrass (Sorghum halepense). Each of the test compounds was formulated into emulsifiable concentrates according to Formulation Example 2, which was diluted with a designated amount of water, and such was uniformly sprayed over the soil surface in the pots with a sprayer at a volume of 100 liters per hectare. After the application, the test were grown in a greenhouse for 25 days, and the herbicidal activity was examined.

[2] = tested on: hemp sesbania (Sesbania exaltata); experiment: as above; conditions: examined after 25 days, index 0-5
Description: as §1

[3] = tested on: johnsongrass (Sorghum halepense); experiment: as above; conditions: examined after 25 days, index 0-5
Description: as §1

[4] = tested on: johnsongrass (Sorghum halepense); experiment: Test Example 5: soil incorporation treatment on upland fields; conditions: examined after 19 days, index 0-5
Description: Soil Incorporation Treatment on Upland Fields Cylindrical plastic pots of 10 cm in diameter and a 10 cm in depth were filled with upland soil. The soil from the surface to 3 cm in depth was taken and mixed with the dilution which was given by diluting the emulsifiable concentrates of the test compounds, formulated according to Formulation Example 2, with water at a volume of 606 liters per hectare. Thereafter, the treated soil was put back to the pots, in which johnsongrass (Sorghum halepense) was sowed at 1.5 cm in depth. The test plants were grown in a greenhouse for 19 days, and the herbicidal activity was examined.

[5] = tested on: johnsongrass (Sorghum halepense); experiment: Test Example 6: soil surface treatment on upland fields; conditions: examined after 25 days, index 0-5
Description: Soil Surface Treatment on Upland Fields Plastic pots which have an area of (26.5×19)cm^2 and a depth of 7 cm were filled with upland soil, seeded with johnsongrass (Sorghum halepense). Each of the test compounds was formulated into emulsifiable concentrates according to Formulation Example 2, which was diluted with a designated amount of water, and such was uniformly sprayed over the soil surface in the pots with a sprayer at a volume of 1000 liters per hectare. After the application, the test plants were placed in a greenhouse for 25 days, and the herbicidal activity was examined.

[6] = tested on: johnsongrass (Sorghum halepense); experiment: Test Example 2: soil surface treatment on upland fields; conditions: examined after 25 days, index 0-5
Description: Soil Surface Treatment on Upland Fields
(§2) Plastic pots which have an area of (26.5×19)cm^2 and a depth of 7 cm were filled with upland soil, seeded with johnsongrass (Sorghum halepense). Each of the test compounds was formulated into emulsifiable concentrates according to Formulation Example 2, which was diluted with a designated amount of water, and such was uniformly sprayed over the soil surface in the pots with a sprayer at a volume of 1000 liters per hectare. After the application, the test plants were grown in a greenhouse for 25 days, and the herbicidal activity was examined.

[7] = tested on: johnsongrass (Sorghum halepense); experiment: Test Example (Table 3): soil incorporation treatment on upland fields; conditions: examined after 19 days, index 0-5
Description: Soil Incorporation Treatment on Upland Fields
Cylindrical plastic pots of 10 cm in diameter and a 10 cm in depth were filled with upland soil. The soil from the surface to 3 cm in depth was taken and mixed with the dilution which was given by diluting the emulsifiable concentrates of the test compounds, formulated according to Formulation Example 2, with water at a volume of 606 liters per hectare. Thereafter, the treated soil was put back to the pots, in which johnsongrass (Sorghum halepense) was sowed at 1.5 cm in depth. The test plants were grown in a greenhouse for 19 days, and the herbicidal activity was examined.

[8] = tested on: common cocklebur (Xanthium strumarium); experiment: Test Example 1: foliar treatment on upland fields; conditions: 1 g/ha active ingredient; foliar spray on 21-day plants, 1% Agri-Dex; examined after 21 days; index 0-5
Description: Foliar Treatment on Upland Fields
as §2, with “with common cocklebur (Xanthium strumarium) and were given 21 days to grow in a greenhouse.” for “with johnsongrass (Sorghum halepense).”, “of water containing 1% Agri-Dex (adjuvant produced by Helena Chemical Company),” for “of water,”, “the foliage of” for “the soil surface in”, “the test plants” for “the pots”, “in the” for “in a”, “for 21” for “for 25”

Structure (SMILES): CCOC(=O)C(C)Oc1cc(-n2c(=O)cc(C(F)(F)F)n(C)c2=O)c(F)cc1Cl (racemic) [Comparative Compound 2, ethyl (2RS)-2-[2-chloro-4-fluoro-5-[3-methyl-2,6-dioxo-4-(trifluoromethyl)-1,2,3,6-tetrahydropyrimidin-1-yl]phenoxy]propionate]
- Herbicidal Activity barnyard-grass ([1]; 16 g/ha): 0
- Herbicidal Activity barnyard-grass ([1]; 32 g/ha): 3
- Herbicidal Activity barnyard-grass ([1]; 63 g/ha): 3
- Herbicidal Activity barnyard-grass ([1]; 125 g/ha): 5
- Herbicidal Activity hemp sesbania ([2]; 16 g/ha): 0
- Herbicidal Activity hemp sesbania ([2]; 32 g/ha): 2
- Herbicidal Activity hemp sesbania ([2]; 63 g/ha): 3
- Herbicidal Activity hemp sesbania ([2]; 125 g/ha): 4
- Herbicidal Activity johnson-grass ([3]; 16 g/ha): 0
- Herbicidal Activity johnson-grass ([3]; 32 g/ha): 2
- Herbicidal Activity johnson-grass ([3]; 63 g/ha): 3
- Herbicidal Activity johnson-grass ([3]; 125 g/ha): 4
- Herbicidal Activity johnsongrass ([4]; 20 g/ha): 1
- Herbicidal Activity johnsongrass ([4]; 40 g/ha): 2
- Herbicidal Activity johnsongrass ([4]; 80 g/ha): 4

Structure (SMILES): C=CCOC(=O)C(C)Oc1cc(-n2c(=O)cc(C(F)(F)F)n(C)c2=O)c(F)cc1Cl (racemic) [Comparative Compound 3, allyl (2RS)-2-[2-chloro-4-fluoro-5-[3-methyl-2,6-dioxo-4-(trifluoromethyl)-1,2,3,6-tetrahydropyrimidin-1-yl]phenoxy]propionate, reference compound]
- Herbicidal Activity johnsongrass ([5]; 16 g/ha): 0
- Herbicidal Activity johnsongrass ([5]; 32 g/ha): 1
- Herbicidal Activity johnsongrass ([5]; 63 g/ha): 2

Structure (SMILES): COC(=O)C(C)Oc1cc(-n2c(=O)cc(C(F)(F)F)n(C)c2=O)c(F)cc1Cl (single isomer, unassigned) [Present Compound 6, methyl 2-[2-chloro-4-fluoro-5-[3-methyl-2,6-dioxo-4-(trifluoromethyl)-1,2,3,6-tetrahydropyrimidin-1-yl]phenoxy]propionate]
- Herbicidal Activity johnsongrass ([6]; 16 g/ha): 4
- Herbicidal Activity johnsongrass ([6]; 32 g/ha): 5
- Herbicidal Activity johnsongrass ([6]; 63 g/ha): 5
- Herbicidal Activity johnsongrass ([7]; 20 g/ha): 3
- Herbicidal Activity johnsongrass ([7]; 40 g/ha): 5
- Herbicidal Activity johnsongrass ([7]; 80 g/ha): 5

Structure (SMILES): COC(=O)C(C)Oc1cc(-n2c(=O)cc(C(F)(F)F)n(C)c2=O)c(F)cc1Cl (single isomer, unassigned) [Present Compound 7, methyl 2-[2-chloro-4-fluoro-5-[3-methyl-2,6-dioxo-4-(trifluoromethyl)-1,2,3,6-tetrahydropyrimidin-1-yl]phenoxy]propionate]
- Herbicidal Activity johnsongrass ([6]; 16 g/ha): 4
- Herbicidal Activity johnsongrass ([6]; 32 g/ha): 5
- Herbicidal Activity johnsongrass ([6]; 63 g/ha): 5
- Herbicidal Activity johnsongrass ([7]; 20 g/ha): 2
- Herbicidal Activity johnsongrass ([7]; 40 g/ha): 5
- Herbicidal Activity johnsongrass ([7]; 80 g/ha): 5

Structure (SMILES): COC(=O)[C@H](C)Oc1cc(-n2c(=O)cc(C(F)(F)F)n(C)c2=O)c(F)cc1Cl [Comparative Compound 1, methyl (2S)-2-[2-chloro-4-fluoro-5-[3-methyl-2,6-dioxo-4-(trifluoromethyl)-1,2,3,6-tetrahydropyrimidin-1-yl]phenoxy]propionate, reference compound]
- Herbicidal Activity Common Cocklebur [8]: 0

Structure (SMILES): COC(=O)C(C)Oc1cc(-n2c(=O)cc(C(F)(F)F)n(C)c2=O)c(F)cc1Cl (stereo not shown) [Comparative Compound 4, methyl 2-[2-chloro-4-fluoro-5-[3-methyl-2,6-dioxo-4-(trifluoromethyl)-1,2,3,6-tetrahydropyrimidin-1-yl]phenoxy]propionate, reference compound]
- Herbicidal Activity johnsongrass ([6]; 16 g/ha): 1
- Herbicidal Activity johnsongrass ([6]; 32 g/ha): 2
- Herbicidal Activity johnsongrass ([6]; 63 g/ha): 4
- Herbicidal Activity johnsongrass ([7]; 20 g/ha): 0
- Herbicidal Activity johnsongrass ([7]; 40 g/ha): 2
- Herbicidal Activity johnsongrass ([7]; 80 g/ha): 4

Structure (SMILES): CCOC(=O)[C@@H](C)Oc1cc(-n2c(=O)cc(C(F)(F)F)n(C)c2=O)c(F)cc1Cl [Present Compound 2, ethyl (2R)-2-[2-chloro-4-fluoro-5-[3-methyl-2,6-dioxo-4-(trifluoromethyl)-1,2,3,6-tetrahydropyrimidin-1-yl]phenoxy]propionate]
- Herbicidal Activity barnyard-grass ([1]; 16 g/ha): 5
- Herbicidal Activity barnyard-grass ([1]; 32 g/ha): 5
- Herbicidal Activity barnyard-grass ([1]; 63 g/ha): 5
- Herbicidal Activity hemp sesbania ([2]; 16 g/ha): 2
- Herbicidal Activity hemp sesbania ([2]; 32 g/ha): 5
- Herbicidal Activity hemp sesbania ([2]; 63 g/ha): 5
- Herbicidal Activity johnson-grass ([3]; 16 g/ha): 3
- Herbicidal Activity johnson-grass ([3]; 32 g/ha): 5
- Herbicidal Activity johnson-grass ([3]; 63 g/ha): 5
- Herbicidal Activity johnsongrass ([4]; 20 g/ha): 4
- Herbicidal Activity johnsongrass ([4]; 40 g/ha): 5
- Herbicidal Activity johnsongrass ([4]; 80 g/ha): 5

Structure (SMILES): C=CCOC(=O)[C@@H](C)Oc1cc(-n2c(=O)cc(C(F)(F)F)n(C)c2=O)c(F)cc1Cl [Present Compound 3, allyl (2R)-2-[2-chloro-4-fluoro-5-[3-methyl-2,6-dioxo-4-(trifluoromethyl)-1,2,3,6-tetrahydropyrimidin-1-yl]phenoxy]propionate]
- Herbicidal Activity johnsongrass ([5]; 16 g/ha): 3
- Herbicidal Activity johnsongrass ([5]; 32 g/ha): 5
- Herbicidal Activity johnsongrass ([5]; 63 g/ha): 5

Structure (SMILES): COC(=O)[C@@H](C)Oc1cc(-n2c(=O)cc(C(F)(F)F)n(C)c2=O)c(F)cc1Cl [Present Compound 5, methyl (2R)-2-[2-chloro-4-fluoro-5-[3-methyl-2,6-dioxo-4-(trifluoromethyl)-1,2,3,6-tetrahydropyrimidin-1-yl]phenoxy]propionate]
- Herbicidal Activity johnsongrass ([6]; 16 g/ha): 4
- Herbicidal Activity johnsongrass ([6]; 32 g/ha): 5
- Herbicidal Activity johnsongrass ([6]; 63 g/ha): 5
- Herbicidal Activity johnsongrass ([7]; 20 g/ha): 4
- Herbicidal Activity johnsongrass ([7]; 40 g/ha): 5
- Herbicidal Activity johnsongrass ([7]; 80 g/ha): 5
